Test results reported in patent publication US8772504B2, “Substituted benzoxazole, benzimidazole, oxazolopyridine and imidazopyridine derivatives as gamma secretase modulators” (Janssen Pharmaceuticals, Inc., priority 2009, dated 2014).

Assays:
[1] = system: Notch-processing activity of the γ-secretase-complex; test: Notch cell-free assay (NICD production from recombinant Notch substrate N99); assay type: biochemical, mouse; settings: 1 μM test compound, 0.3-0.5 μM Notch substrate, 37° C. for 6 to 22 h, western blotting
Protocol: The Notch transmembrane domain is cleaved by gamma secretase to release
Notch Intracellular C-terminal Domain (NICD).
To monitor the effect of compounds on NICD production, a recombinant Notch substrate (N99) was prepared. The Notch substrate, comprised of mouse Notch fragment (V1711-E1809), an N-terminal methionine and a C-terminal FLAG sequence ([…]), was expressed in E. coli and purified on a column containing an anti-FLAG M2 affinity matrix.
A typical Notch cell-free assay consisted of 0.3-0.5 μM Notch substrate, an enriched preparation of γ secretase and 1 μM of a test compound (compounds 8, 15, 92, 108, 114 and 130 of the present invention). Controls included a γ secretase inhibitor (GSI), such as (2S)—N-[2-(3,5-difluorophenyeacetyl]-L-alanyl-2-phenyl-glycine 1,1-dimethylethyl ester (DAPT) or (2S)-2-hydroxy-3-methyl-N-[(1S)-1-methyl-2-oxo-2-[[(1S)-2,3,4,5-tetrahydro-3-methyl-2-oxo-1H-3-benzazepin-1-yl]amino]ethyl]-butanamide (Semagacestat), and DMSO, the final concentration of DMSO being 1%. Recombinant Notch substrate was pre-treated with 17 μM DTT (1,4-dithiothreitol) and 0.02% SDS (Sodium Dodecyl Sulfate) and heated at 65° C. for 10 min. The mixture of substrate, gamma secretase and compound/DMSO was incubated at 37° C. for 6 to 22 hours (h). 6 h incubation was sufficient to produce the maximal amount of NICD and the cleaved product remained stable for an additional 16 h. Reaction products were processed for SDS PAGE (Sodium Dodecyl Sulfate-Poly Acrylamide Gel Electrophoresis) and western blotting. Blots were probed with an anti-Flag M2 antibody, followed by LI-COR infrared secondary antibody, and analyzed with the Odyssey Infrared Imaging System (LI-COR® Biosciences).

[2] = system: T1, Notch-processing activity of the γ-secretase-complex; test: Notch cell-based assay (N2-CHO/DL-CHO co-culture, Dual-Glo luciferase); design: species or system mouse; settings: N2-CHO/DL-CHO co-culture 16 h; five-point curve 3 μM-0.3 nM
T1 construct: average IC50 Notch cell-based assay (luciferase readout); other: N2-CHO/DL-CHO co-culture 16 h; five-point curve 3 μM-
Source text: The Notch cell-based assay was based on the interaction of Notch and its ligand in a co-culture system and utilized the Dual-Glo Luciferase Assay System (Promega) to monitor NICD production. 2 stable cell lines, N2-CHO and DL-CHO, were established to express full-length mouse Notch2 and Delta respectively. Cells that expressed mouse Notch were also transfected with 2 plasmids, pTP1-Luc and pCMV-RLuc, to express firefly and Renilla luciferase. Expression of firefly luciferase was under the control of TP1 promoter that responded to NICD activation.
N2-CHO cells were seeded at 1×10^5/well in 24-well plates the day before transfection. On the second day, cells were double transfected with 3 μg/well pTP1-Luc (expressing firefly luciferase) and 0.3 ng/well pCMV-RLuc (expressing Renilla luciferase). After 6 h incubation, transfected N2-CHO cells were washed and DL-CHO cells (2×10^5 cells/well) were added.
Compounds were pre-mixed with DL-CHO cell suspension in a five-point curve. Typically, compound treatment was performed in duplicate with a serial 1:10 dilution (3 μM-0.3 nM) in DMSO. The final concentration of DMSO in a given culture was 1%. Controls included non-transfected cells and transfected cells treated with a GSI or DMSO only. Luciferase assays were performed after 16 h co-culture and compound treatment.
The luciferase assay was carried out according to manufacture's instructions. Briefly, cells were washed with PBS (Phosphate Buffered Saline), lysed with Passive Lysis Buffer (Promega), and incubated at room temperature for 20 min. Lysates were mixed with Dual-Glo Luciferase Reagent and the firefly luciferase activity was measured by reading the luminescence signal in the EnVision 2101 Multilabel reader. Dual-Glo Stop & Glo Reagent was then added to each well and the Renilla luciferase signal was measured.

| SMILES | effect on the Notch-processing activity of the γ-secretase-complex (production of NICD) [1] | inhibition in Notch cell-based assay (luciferase readout) [2] |
| --- | --- | --- |
| COc1cc(Nc2nccc3c2nc(-c2ccc(F)cc2)n3C)ccc1-n1cnc(C)c1 [Compound 8] | did not show an effect | – |
| COc1nc(Nc2cccc3c2nc(-c2ccc(F)cc2)n3C)ccc1-n1cnc(C)c1 [Compound 15] | did not show an effect | non-inhibitory |
| COc1cc(Nc2nccc3c2nc(-c2ccc(F)cc2)n3C)ccc1-n1cnc(C)n1 [Compound 92] | did not show an effect | non-inhibitory |
| COc1cc(-c2nc3c(Nc4ccc(-n5cnc(C)n5)c(OC)c4)nccc3n2C)ccc1Cl [Compound 114] | did not show an effect | non-inhibitory |
| COc1cc(Nc2nccc3c2nc(-c2ccccc2C(F)(F)F)n3C)ccc1-n1cnc(C)n1 [Compound 130] | did not show an effect | non-inhibitory |
